These are literature values, as cited in patent US6399797B1, “Vitamin D analogues” (Leo Pharmaceutical Products Ltd. A/S (Løvens kemiske Fabrik …, priority 1997, dated 2002).

The subject of data set [1] is transplanted islets in diabetic NOD mice. The conditions noted are these: alone or in combination with cyclosporin A.
For data set [2], the system named is experimental animal models. The conditions noted are these: systemically administered.
Data set [3] concerns cardiac and small bowel grafts. To be noted: rats.

Take `C=C1/C(=C\C=C2/CCC[C@]3(C)[C@@H]([C@@H](C)OCCCC(O)(CC)CC)CC[C@@H]23)C[C@@H](O)C[C@@H]1O` [KH 1060]: the “prevention of autoimmune destruction of transplanted islets” value in data set [1] is “prevent autoimmune destruction of transplanted islets”. Further, in data set [2], the “immunosuppressive activities in vivo” value was “have shown immunosuppressive activities in vivo”.

For `C=C1/C(=C\C=C2/CCC[C@]3(C)[C@@H]([C@H](C)CCCC(C)(C)O)CC[C@@H]23)C[C@@H](O)C[C@@H]1O` [MC 1288], the “immunosuppressive activities in vivo” value in data set [2] is “have shown immunosuppressive activities in vivo”. Further, the “survival of cardiac and small bowel grafts” value in data set [3] was “able to prolong survival of cardiac and small bowel grafts”.
